Measured values from the supplement of paper PMC13380429.
± gives the standard deviation of the averaged measurements.

Columns and labels:
Settings in all cases: 72 h
Caco-2 [1] = assay: cell viability relative to DMSO; higher = less toxic
Calu-3 [2] = assay: as above
HepG2 [3] = assay: as above
U2OS [4] = assay: as above
Vero E6 [5] = assay: as above
Caco-2 [6] = assay: relative viability EC50 (midpoint between 100% and the lowest measured viability); higher = less toxic
Calu-3 [7] = assay: as above
HepG2 [8] = assay: as above
U2OS [9] = assay: as above
Vero E6 [10] = assay: as above
Caco-2 [11] = assay: drug sensitivity score (DSS) for viability; higher = more toxic; extreme values may be limits of the assay
Calu-3 [12] = assay: as above
HepG2 [13] = assay: as above
U2OS [14] = assay: as above
Vero E6 [15] = assay: as above

Structure (SMILES) | cell viability (Caco-2 [1]; 1 nM) | cell viability (Caco-2 [1]; 10 nM) | cell viability (Caco-2 [1]; 100 nM) | cell viability (Caco-2 [1]; 1000 nM) | cell viability (Caco-2 [1]; 10000 nM) | cell viability (Calu-3 [2]; 1 nM) | cell viability (Calu-3 [2]; 10 nM) | cell viability (Calu-3 [2]; 100 nM) | cell viability (Calu-3 [2]; 1000 nM) | cell viability (Calu-3 [2]; 10000 nM) | cell viability (HepG2 [3]; 1 nM) | cell viability (HepG2 [3]; 10 nM) | cell viability (HepG2 [3]; 100 nM) | cell viability (HepG2 [3]; 1000 nM) | cell viability (HepG2 [3]; 10000 nM) | cell viability (U2OS [4]; 1 nM) | cell viability (U2OS [4]; 10 nM) | cell viability (U2OS [4]; 100 nM) | cell viability (U2OS [4]; 1000 nM) | cell viability (U2OS [4]; 10000 nM) | cell viability (Vero E6 [5]; 1 nM) | cell viability (Vero E6 [5]; 10 nM) | cell viability (Vero E6 [5]; 100 nM) | cell viability (Vero E6 [5]; 1000 nM) | cell viability (Vero E6 [5]; 10000 nM) | relative viability EC50 (Caco-2 [6]) | relative viability EC50 (Calu-3 [7]) | relative viability EC50 (HepG2 [8]) | relative viability EC50 (U2OS [9]) | relative viability EC50 (Vero E6 [10]) | drug sensitivity score (Caco-2 [11]) | drug sensitivity score (Calu-3 [12]) | drug sensitivity score (HepG2 [13]) | drug sensitivity score (U2OS [14]) | drug sensitivity score (Vero E6 [15])
O=C/C=C/c1ccccc1 [cinnamaldehyde] | 103% | 94.2% | 96.9% | 97.6% | 101% | 90.3% | 105% | 105% | 95.1% | 102% | 97.8% | 100% | 108% | 108% | 97.5% | 106% | 99.2% | 98.6% | 96.8% | 99.4% | 92.3% | 99.5% | 96.7% | 98.7% | 95.9% | > 10 µM | > 10 µM | > 10 µM | > 10 µM | > 10 µM | 0 | 0 | 0 | 0 | 0
C=C[C@@]1(C)CC(=O)[C@]2(O)[C@@]3(C)[C@@H](O)CCC(C)(C)[C@@H]3[C@H](O)[C@H](OC(C)=O)[C@@]2(C)O1 [colforsin] | 97.9 ± 2.7% | 99.3 ± 1.3% | 100 ± 3.5% | 109 ± 6.7% | 118 ± 10% | 106 ± 14% | 109 ± 11% | 103 ± 3% | 106 ± 2.1% | 97.5 ± 7.2% | 110 ± 8.1% | 106 ± 3.4% | 101 ± 3.2% | 96.4 ± 4.8% | 99.2 ± 3.2% | 101 ± 1.1% | 101 ± 5% | 95.9 ± 0.28% | 100 ± 1.4% | 96.65 ± 0.64% | 97.7 ± 6.5% | 101 ± 14% | 103 ± 4.5% | 89.9 ± 3.5% | 85.7 ± 4.3% | > 10 µM | > 10 µM | > 10 µM | > 10 µM | > 10 µM | 0 | 0 | 0 | 0 | 0.4 ± 0.28
N#CCC(=O)NN [cyacetacide] | 98.2% | 102% | 100% | 95.6% | 97.8% | 84% | 103% | 96.3% | 95.7% | 108% | 95.7% | 91.9% | 97% | 97.4% | 93.4% | 95.5% | 103% | 96% | 94% | 102% | 106% | 98.6% | 102% | 108% | 102% | > 10 µM | > 10 µM | > 10 µM | > 10 µM | > 10 µM | 0 | 0 | 0 | 0 | 0
CN1CCN(C(c2ccccc2)c2ccccc2)CC1 [cyclizine] | 95.7% | 101% | 99.9% | 94.9% | 103% | 104% | 98.9% | 85.8% | 102% | 99.9% | 94.7% | 99.1% | 103% | 104% | 97.6% | 105% | 94% | 101% | 95.6% | 97.5% | 97.7% | 96.3% | 93.7% | 96% | 102% | > 10 µM | > 10 µM | > 10 µM | > 10 µM | > 10 µM | 0 | 0 | 0 | 0 | 0
CC(C)(C)OC(=O)N[C@H]1CCCCC/C=C\[C@@H]2C[C@@]2(C(=O)NS(=O)(=O)C2CC2)NC(=O)[C@@H]2C[C@@H](OC(=O)N3Cc4cccc(F)c4C3)CN2C1=O [danoprevir] | 98.1% | 98.5% | 98.4% | 101% | 83% | 107% | 103% | 85.1% | 107% | 102% | 109% | 104% | 94.2% | 92% | 95.1% | 104% | 101% | 98.9% | 99.4% | 98.2% | 106% | 98.8% | 98.6% | 103% | 103% | > 10 µM | > 10 µM | > 10 µM | > 10 µM | > 10 µM | 0.3 | 0 | 0 | 0 | 0
C[C@H](CCC(=O)O)[C@H]1CC[C@H]2[C@@H]3CC[C@@H]4C[C@H](O)CC[C@]4(C)[C@H]3C[C@H](O)[C@]12C [deoxycholic-acid] | 102% | 97.5% | 98.5% | 105% | 90% | 103% | 93.9% | 103% | 102% | 102% | 105% | 112% | 90.9% | 102% | 97.5% | 96.8% | 99.2% | 98.7% | 99.8% | 98.2% | 99.5% | 103% | 102% | 106% | 101% | > 10 µM | > 10 µM | > 10 µM | > 10 µM | > 10 µM | 0 | 0 | 0 | 0 | 0
C[C@@H](CN1CC(=O)NC(=O)C1)N1CC(=O)NC(=O)C1 [dexrazoxane] | 89.3% | 103% | 90.4% | 105% | 90.3% | 104% | 92.2% | 95.1% | 96.9% | 101% | 93.9% | 106% | 98.2% | 92.2% | 100% | 96.9% | 109% | 96.7% | 102% | 98.6% | 105% | 101% | 103% | 93.8% | 99.7% | > 10 µM | > 10 µM | > 10 µM | > 10 µM | > 10 µM | 0 | 0 | 0 | 0 | 0
O[C@H]([C@H](O)[C@@H]1CO1)[C@H]1CO1 [dianhydrogalactitol] | 97.4% | 95.8% | 101% | 104% | 95.7% | 103% | 107% | 99.3% | 95.4% | 94.2% | 99.4% | 101% | 104% | 90.8% | 91.1% | 99.1% | 104% | 97.2% | 100% | 100% | 97.6% | 96.9% | 93.2% | 97.2% | 99.9% | > 10 µM | > 10 µM | > 10 µM | > 10 µM | > 10 µM | 0 | 0 | 0 | 0 | 0
NC[C@@H]1CC[C@@H](N)[C@@H](O[C@H]2[C@H](O)[C@@H](O[C@H]3O[C@H](CO)[C@@H](O)[C@H](N)[C@H]3O)[C@H](N)C[C@@H]2N)O1 [dibekacin] | 96% | 94.4% | 101% | 93.5% | 106% | 101% | 91.9% | 114% | 101% | 95% | 96.5% | 101% | 89.1% | 102% | 94.5% | 104% | 97.9% | 101% | 98% | 104% | 103% | 103% | 98.1% | 101% | 101% | > 10 µM | > 10 µM | > 10 µM | > 10 µM | > 10 µM | 0 | 0 | 0 | 0 | 0
CC(=O)OCC(=O)[C@@]1(OC(C)=O)[C@@H](C)C[C@H]2[C@@H]3C[C@H](F)C4=CC(=O)C=C[C@]4(C)[C@@]3(F)[C@@H](O)C[C@@]21C [diflorasone-diacetate] | 110% | 106% | 99% | 98.4% | 87.6% | 105% | 95.9% | 93.1% | 100% | 101% | 82.6% | 90.4% | 87.9% | 97.8% | 95.2% | 102% | 96.9% | 95.9% | 96.5% | 89.9% | 104% | 106% | 105% | 90.7% | 98.1% | > 10 µM | > 10 µM | > 10 µM | > 10 µM | > 10 µM | 0.2 | 0 | 0 | 0 | 0
CCCCCCCCCCCC[N+](C)(C)CCOc1ccccc1 [domiphen] | 85.6% | 99.3% | 95% | 101% | 11.1% | 90.9% | 92.7% | 91.5% | 102% | 26.8% | 103% | 95.3% | 100% | 94% | 30% | 93.6% | 102% | 94.9% | 95.7% | 9.5% | 100% | 98.8% | 96.6% | 93% | 83.8% | 3.22 µM | 3.31 µM | 2.46 µM | 2.8 µM | > 10 µM | 4.9 | 3.9 | 4.8 | 5.6 | 0.5
COc1ccccc1N1CCN(CC(O)COc2cc(OC)c(OC)c(OC)c2)CC1 (stereo not given) [enciprazine] | 104% | 97.9% | 89.3% | 93.8% | 99.8% | 101% | 106% | 100% | 98.1% | 105% | 98.3% | 99.9% | 91.4% | 94.2% | 96% | 94.9% | 98.2% | 95.1% | 96% | 94.9% | 100% | 101% | 101% | 99.1% | 99.4% | > 10 µM | > 10 µM | > 10 µM | > 10 µM | > 10 µM | 0 | 0 | 0 | 0 | 0
CCCCCCCCCCCCCCCCCCCCCC(=O)Nc1ccn([C@@H]2O[C@H](CO)[C@@H](O)[C@@H]2O)c(=O)n1 [enocitabine] | 78.8% | 67.8% | 90.5% | 114% | 92.3% | 99.2% | 99% | 104% | 94.9% | 95.7% | 98% | 102% | 100% | 112% | 79.2% | 94.1% | 95.2% | 95.4% | 93.6% | 102% | 95.6% | 97.2% | 91.9% | 94% | 107% | > 10 µM | > 10 µM | > 10 µM | > 10 µM | > 10 µM | 0 | 0 | 0.4 | 0 | 0
CCn1cnc(C(=O)NC)c1C(=O)NC [ethimizol] | 97.5% | 104% | 91.5% | 99.1% | 92.3% | 102% | 92.4% | 91.3% | 102% | 99.1% | 89.3% | 114% | 103% | 104% | 111% | 98.6% | 102% | 98.1% | 98.2% | 94.9% | 96.4% | 96.2% | 96.4% | 99.9% | 100% | > 10 µM | > 10 µM | > 10 µM | > 10 µM | > 10 µM | 0 | 0 | 0 | 0 | 0
